Laboratory results: patent US9982017B2, “Synthetic apelin mimetics for the treatment of heart failure” (priority 2012, dated 2018)
Where a SMILES comes first, the peptide text is derived from it. Bridges are numbered along the chain shown (N, C = ends). [ ]: non-standard residue; d: D form. The star is where a group is joined. Palmitoyl = CCCCCCCCCCCCCCCC(=O)*; 3Pal = N[C@@H](Cc1cccnc1)C(=O)O; Myristoyl = CCCCCCCCCCCCCC(=O)*; pGlu = O=C1CC[C@@H](C(=O)O)N1; NHPhenethyl = c1ccc(CCN*)cc1; d(hCys) = N[C@H](CCS)C(=O)O; Nle = CCCC[C@H](N)C(=O)O; Dab = NCC[C@H](N)C(=O)O; AEEA = NCCOCCOCC(=O)O

assay: in vitro; details: rat, not told, Surrogate activity-based Plasma stability t½
Method: The slope of this line, k, was determined by linear regression (Microsoft Excel). • Stability half-life was then calculated by the formula, t ½=0.693÷k Surrogate Activity-Based Plasma Stability Assay:
The calcium flux protocol described above was followed, with the following changes. The peptides were also incubated with 5% rat plasma (Bioreclamation # [sequence]-M, Na Heparin-treated). Readings were taken at time points t0 and t24 hrs, after incubation in a 37° C. tissue culture incubator. Peptide plasma half-life in minutes was estimated by calculating the following:
2) Calculate slope of value above and

| half-life [h] | Structure (SMILES) |
| --- | --- |
| > 16.7 | CCCC[C@@H]1NC(=O)[C@@H]2CCCN2C(=O)CNC(=O)[C@H](CCCCN)NC(=O)[C@H](CCC(=O)O)NC(=O)[C@@H](NC(=O)[C@H](CC(C)C)NC(=O)[C@H](CCCNC(=N)N)NC(=O)[C@@H]2CCCN2C(=O)[C@H](CCCNC(=N)N)NC(=O)[C@@H]2CCC(=O)N2)CSSC[C@@H](C(=O)N[C@@H](Cc2ccccc2)C(=O)O)NC1=O [Example 43, pE-R-P-R-L-C-E-K-G-P-Nle-C-F-OH] ([pGlu]RPRLCEKGP[Nle]CF-OH; disulfide 6-12) |
| 1.95 | CCCC[C@@H]1NC(=O)[C@@H]2CCCN2C(=O)CNC(=O)[C@H](CCCCN)NC(=O)[C@H](Cc2ccccc2)NC(=O)[C@@H](NC(=O)[C@H](CC(C)C)NC(=O)[C@H](CCCNC(=N)N)NC(=O)[C@@H]2CCCN2C(=O)[C@H](CCCNC(=N)N)NC(=O)[C@@H]2CCC(=O)N2)CCCCNC(=O)[C@@H](Cc2ccccc2)NC1=O [Example 6, pE-R-P-R-L-K-F-K-G-P-Nle-f] ([pGlu]RPRLKFKGP[Nle][dF]; lactam 6-C) |
| 8.42 | CCCC[C@@H]1NC(=O)[C@@H]2CCCN2C(=O)CNC(=O)[C@H](CCCCN)NC(=O)[C@H](Cc2c[nH]cn2)NC(=O)[C@@H](NC(=O)[C@H](CC(C)C)NC(=O)[C@H](CCCNC(=N)N)NC(=O)[C@H](CCCCN)NC(=O)[C@H](CCCNC(=N)N)NC(=O)[C@@H]2CCC(=O)N2)CSSC[C@@H](C(=O)N[C@@H](Cc2ccccc2)C(=O)O)NC1=O [Example 34, pE-R-K-R-L-C-H-K-G-P-Nle-C-F-OH] ([pGlu]RKRLCHKGP[Nle]CF-OH; disulfide 6-12) |
| > 16.7 | CCCC[C@@H]1NC(=O)[C@@H]2CCCN2C(=O)CNC(=O)[C@H](CCCCN)NC(=O)[C@H](Cc2c[nH]cn2)NC(=O)[C@@H](NC(=O)[C@H](CC(C)C)NC(=O)[C@H](CCCNC(=N)N)NC(=O)[C@@H]2CCCN2C(=O)[C@@H](CCCNC(=N)N)NC(=O)[C@@H]2CCC(=O)N2)CSSC[C@@H](C(=O)N[C@@H](Cc2ccccc2)C(=O)O)NC1=O [Example 30, pE-r-P-R-L-C-H-K-G-P-Nle-C-F-OH] ([pGlu][dR]PRLCHKGP[Nle]CF-OH; disulfide 6-12) |
| > 16.7 | CCCC[C@@H]1NC(=O)[C@@H]2CCCN2C(=O)CNC(=O)[C@H](CCCCN)NC(=O)[C@H](Cc2c[nH]cn2)NC(=O)[C@H](NC(=O)[C@H](CC(C)C)NC(=O)[C@H](CCCNC(=N)N)NC(=O)[C@@H]2CCCN2C(=O)[C@H](CCCNC(=N)N)NC(=O)[C@@H]2CCC(=O)N2)CCSSCC[C@H](C(=O)N[C@@H](Cc2ccccc2)C(=O)O)NC1=O [Example 55, pE-R-P-R-L-(D-hC)-H-K-G-P-Nle-(D-hC)-F-OH] ([pGlu]RPRL[d(hCys)]HKGP[Nle][d(hCys)]F-OH; disulfide 6-12) |
| > 16.7 | CCCC[C@@H]1NC(=O)[C@@H]2CCCN2C(=O)CNC(=O)[C@H](CCCCN)NC(=O)[C@H](Cc2c[nH]cn2)NC(=O)[C@@H](NC(=O)[C@H](CC(C)C)NC(=O)[C@H](CCCNC(=N)N)NC(=O)[C@H](CC(=O)O)NC(=O)[C@H](CCCNC(=N)N)NC(=O)[C@@H]2CCC(=O)N2)CSSC[C@@H](C(=O)N[C@@H](Cc2ccccc2)C(=O)O)NC1=O [Example 35, pE-R-D-R-L-C-H-K-G-P-Nle-C-F-OH] ([pGlu]RDRLCHKGP[Nle]CF-OH; disulfide 6-12) |
| 2.79 | CCCC[C@@H]1NC(=O)[C@@H]2CCCN2C(=O)[C@H](CCCNC(=N)N)NC(=O)[C@H](CCCCN)NC(=O)[C@H](Cc2c[nH]cn2)NC(=O)[C@@H](NC(=O)[C@H](CC(C)C)NC(=O)[C@H](CCCNC(=N)N)NC(=O)[C@@H]2CCCN2C(=O)[C@H](CCCNC(=N)N)NC(=O)[C@@H]2CCC(=O)N2)CSSC[C@@H](C(=O)N[C@@H](Cc2ccccc2)C(=O)O)NC1=O [Example 45, pE-R-P-R-L-C-H-K-R-P-Nle-C-F-OH] ([pGlu]RPRLCHKRP[Nle]CF-OH; disulfide 6-12) |
| > 16.7 | CCCC[C@@H]1NC(=O)[C@@H]2CCCN2C(=O)CNC(=O)[C@H](CCCCN)NC(=O)[C@H](Cc2c[nH]cn2)NC(=O)[C@@H](NC(=O)[C@H](CC(C)C)NC(=O)[C@H](CCCNC(=N)N)NC(=O)[C@@H]2CCCN2C(=O)[C@H](CCCNC(=N)N)NC(=O)[C@@H]2CCC(=O)N2)CSSC[C@@H](C(=O)O)NC1=O [Example 50, pE-R-P-R-L-C-H-K-G-P-Nle-C-OH] ([pGlu]RPRLCHKGP[Nle]C-OH; disulfide 6-12) |
| 6.98 | CC(C)C[C@H](NC(=O)[C@H](CCCNC(=N)N)NC(=O)[C@@H]1CCCN1C(=O)[C@H](CCCNC(=N)N)NC(=O)[C@@H]1CCC(=O)N1)C(=O)N[C@H]1CSSC[C@@H](C(=O)N[C@@H](Cc2ccccc2)C(=O)O)NC(=O)[C@H](Cc2cccnc2)NC(=O)[C@@H]2CCCN2C(=O)CNC(=O)[C@H](CCCCN)NC(=O)[C@H](Cc2c[nH]cn2)NC1=O [Example 47, pE-R-P-R-L-C-H-K-G-P-(3-PyA)-C-F-OH] ([pGlu]RPRLCHKGP[3Pal]CF-OH; disulfide 6-12) |
| > 16.7 | CCCCCCCCCCCCCC(=O)NCCOCCOCC(=O)NCCOCCOCC(=O)N[C@@H](CCC(N)=O)C(=O)N[C@@H](CCCNC(=N)N)C(=O)N1CCC[C@H]1C(=O)N[C@@H](CCCNC(=N)N)C(=O)N[C@@H](CC(C)C)C(=O)N[C@H]1CSSC[C@@H](C(=O)N[C@H](Cc2ccccc2)C(=O)O)NC(=O)[C@H](CCCC)NC(=O)[C@@H]2CCCN2C(=O)CNC(=O)[C@H](CCCCN)NC(=O)[C@H](Cc2c[nH]cn2)NC1=O [Example 58, Myristoyl-O2Oc-O2Oc-Q-R-P-R-L-C-H-K-G-P-Nle-C-f-OH] ({Myristoyl-AEEA-AEEA}-QRPRLCHKGP[Nle]C[dF]-OH; disulfide 6-12) |
| 9.93 | CCCC[C@@H]1NC(=O)[C@@H]2CCCN2C(=O)CNC(=O)[C@H](CCCCN)NC(=O)[C@H](Cc2cnc[nH]2)NC(=O)[C@@H](NC(=O)[C@H](CC(C)C)NC(=O)[C@H](CCCNC(=N)N)NC(=O)[C@@H]2CCCN2C(=O)[C@H](CCCNC(=N)N)NC(=O)[C@@H]2CCC(=O)N2)CSC/C(=N/OCC(=O)NCCNC(=O)COCCOCCNC(=O)CCC(NC(=O)CCCCCCCCCCCCCCCCC(=O)O)C(=O)O)CSC[C@@H](C(=O)N[C@@H](Cc2ccccc2)C(=O)O)NC1=O (stereo partly drawn) [Example 66] |
| 14.3 | CCCC[C@@H]1NC(=O)[C@@H]2CCCN2C(=O)[C@H](CC(C)C)NC(=O)[C@H](CCCCN)NC(=O)[C@H](Cc2c[nH]cn2)NC(=O)[C@@H](NC(=O)[C@H](CC(C)C)NC(=O)[C@H](CCCNC(=N)N)NC(=O)[C@@H]2CCCN2C(=O)[C@H](CCCNC(=N)N)NC(=O)[C@@H]2CCC(=O)N2)CSSC[C@@H](C(=O)N[C@@H](Cc2ccccc2)C(=O)O)NC1=O [Example 44, pE-R-P-R-L-C-H-K-L-P-Nle-C-F-OH] ([pGlu]RPRLCHKLP[Nle]CF-OH; disulfide 6-12) |
| 13.3 | CCCCCCCCCCCCCCCC(=O)NCCCC[C@H](NC(=O)[C@@H]1CSSC[C@H](NC(=O)[C@H](CC(C)C)NC(=O)[C@H](CCCNC(=N)N)NC(=O)[C@@H]2CCCN2C(=O)[C@H](CCCNC(=N)N)NC(=O)[C@@H]2CCC(=O)N2)C(=O)N[C@@H](Cc2c[nH]cn2)C(=O)N[C@@H](CCCCN)C(=O)NCC(=O)N2CCC[C@H]2C(=O)N[C@@H](CCCC)C(=O)N1)C(=O)O [Example 22, pE-R-P-R-L-C-H-K-G-P-Nle-C-K(Palmitoyl)-OH] ([pGlu]RPRLCHKGP[Nle]CK(Palmitoyl)-OH; disulfide 6-12) |
| 10.9 | CCCC[C@@H]1NC(=O)[C@@H]2CCCN2C(=O)[C@H](CC(=O)O)NC(=O)[C@H](CCCCN)NC(=O)[C@H](Cc2c[nH]cn2)NC(=O)[C@@H](NC(=O)[C@H](CC(C)C)NC(=O)[C@H](CCCNC(=N)N)NC(=O)[C@@H]2CCCN2C(=O)[C@H](CCCNC(=N)N)NC(=O)[C@@H]2CCC(=O)N2)CSSC[C@@H](C(=O)N[C@@H](Cc2ccccc2)C(=O)O)NC1=O [Example 39, pE-R-P-R-L-C-H-K-D-P-Nle-C-F-OH] ([pGlu]RPRLCHKDP[Nle]CF-OH; disulfide 6-12) |
| > 16.7 | CCCCCCCCCCCCCCCC(=O)NCCCC[C@@H]1NC(=O)[C@@H](NC(=O)[C@H](CC(C)C)NC(=O)[C@H](CCCNC(=N)N)NC(=O)[C@@H]2CCCN2C(=O)[C@H](CCCNC(=N)N)NC(=O)[C@@H]2CCC(=O)N2)CSSC[C@@H](C(=O)N[C@@H](Cc2ccccc2)C(=O)O)NC(=O)[C@H](CCCC)NC(=O)[C@@H]2CCCN2C(=O)CNC(=O)[C@H](CCCCN)NC1=O [Example 23, pE-R-P-R-L-C-K(Palmitoyl)-K-G-P-Nle-C-F-OH] ([pGlu]RPRLCK(Palmitoyl)KGP[Nle]CF-OH; disulfide 6-12) |
| 2.1 | CCCC[C@@H]1NC(=O)[C@@H]2CCCN2C(=O)CNC(=O)[C@H](CCCCN)NC(=O)[C@H](Cc2ccccc2)NC(=O)[C@@H](NC(=O)[C@H](CC(C)C)NC(=O)[C@H](CCCNC(=N)N)NC(=O)[C@@H]2CCCN2C(=O)[C@H](CCCNC(=N)N)NC(=O)[C@@H]2CCC(=O)N2)CCCCNC(=O)[C@H](Cc2ccccc2)NC1=O [Example 5, pE-R-P-R-L-K-F-K-G-P-Nle-F] ([pGlu]RPRLKFKGP[Nle]F; lactam 6-C) |

| Structure (SMILES) | half-life [h] |
| --- | --- |
| CCCC[C@@H]1NC(=O)[C@@H]2CCCN2C(=O)CNC(=O)[C@H](Cc2ccccc2)NC(=O)[C@H](Cc2c[nH]cn2)NC(=O)[C@@H](NC(=O)[C@H](CC(C)C)NC(=O)[C@H](CCCNC(=N)N)NC(=O)[C@@H]2CCCN2C(=O)[C@H](CCCNC(=N)N)NC(=O)[C@@H]2CCC(=O)N2)CCNC(=O)C[C@@H](C(=O)NCCc2ccccc2)NC1=O [Example 4, pE-R-P-R-L-Dab-H-F-G-P-Nle-D-Phenethylamine] ([pGlu]RPRL[Dab]HFGP[Nle]D-NHPhenethyl; lactam 6-12) | 0.833 |
| CCCC[C@@H]1NC(=O)[C@@H]2CCCN2C(=O)CNC(=O)[C@H](Cc2ccccc2)NC(=O)[C@H](Cc2c[nH]cn2)NC(=O)[C@@H](NC(=O)[C@H](CC(C)C)NC(=O)[C@H](CCCNC(=N)N)NC(=O)[C@@H]2CCCN2C(=O)[C@H](CCCNC(=N)N)NC(=O)[C@@H]2CCC(=O)N2)CCCCNC(=O)C[C@@H](C(=O)NCCc2ccccc2)NC1=O [Example 1, pE-R-P-R-L-K-H-F-G-P-Nle-D-Phenethylamine] ([pGlu]RPRLKHFGP[Nle]D-NHPhenethyl; lactam 6-12) | 0.512 |
